Experimental findings from US20250197351A1, “C4-CARBOXYLIC ACID-S[…] DERIVATIVES AND METHODS OF USING” (priority 2022, published 2025) are described below.

Where “and” joins values, the source holds several entries; their conditions need not be identical. Equal entries are not always repeated.

The target of one data set is T1, 5-HT1A receptor (Homo sapiens, UniProt P08908).
T1 construct: host or cells: CHO-K1 (co-expressing Ga15)
T1 sequence (P08908 1-422): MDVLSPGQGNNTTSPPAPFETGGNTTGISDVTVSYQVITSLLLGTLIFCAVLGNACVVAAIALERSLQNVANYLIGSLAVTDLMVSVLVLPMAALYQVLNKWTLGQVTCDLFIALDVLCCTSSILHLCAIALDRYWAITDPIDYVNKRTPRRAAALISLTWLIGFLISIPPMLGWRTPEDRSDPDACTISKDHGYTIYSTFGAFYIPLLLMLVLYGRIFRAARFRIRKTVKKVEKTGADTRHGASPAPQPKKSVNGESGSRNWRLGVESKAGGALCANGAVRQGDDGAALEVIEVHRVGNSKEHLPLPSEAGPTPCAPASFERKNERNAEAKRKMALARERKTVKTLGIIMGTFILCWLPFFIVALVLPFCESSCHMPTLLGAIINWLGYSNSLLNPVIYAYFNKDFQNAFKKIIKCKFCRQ
Description: cAMP-Glo assay of 5-HT1A receptor modulation, CHO-K1/5-HT1A/Ga15 (+5-HT1A) vs CHO-K1/Ga15 (−5-HT1A) cells. The note with it: +5-HT1A vs −5-HT1A CHO-K1 cells; 4 μM forskolin; increasing ligand concentration. The format is cell-based.

In a further data set the target is 5-HT2A receptor (Homo sapiens, UniProt P28223). Description: [3H]ketanserin competition binding assay (SPA). To be noted: 1 nM [3H]ketanserin; control ligands.
Sequence of 5-HT2A receptor (P28223 whole entry): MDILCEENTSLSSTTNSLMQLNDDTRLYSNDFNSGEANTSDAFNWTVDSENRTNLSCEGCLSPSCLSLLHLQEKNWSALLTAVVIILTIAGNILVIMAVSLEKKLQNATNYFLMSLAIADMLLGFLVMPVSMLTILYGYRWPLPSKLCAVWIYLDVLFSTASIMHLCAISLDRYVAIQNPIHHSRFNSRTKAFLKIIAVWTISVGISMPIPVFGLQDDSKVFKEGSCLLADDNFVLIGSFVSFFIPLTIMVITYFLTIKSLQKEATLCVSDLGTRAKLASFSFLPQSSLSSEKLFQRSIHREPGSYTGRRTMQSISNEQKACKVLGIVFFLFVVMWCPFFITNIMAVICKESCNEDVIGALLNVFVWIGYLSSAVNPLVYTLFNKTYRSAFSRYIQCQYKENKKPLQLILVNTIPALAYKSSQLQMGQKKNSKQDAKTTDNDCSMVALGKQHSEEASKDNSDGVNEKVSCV
Data set [1] deals with T2, 5-HT2A receptor (5-HT2AR) (Mus musculus, UniProt P35363).
T2 construct: host or cells: C57BL/6 mice, in vivo (neuronal receptor)
T2 sequence (P35363 whole entry): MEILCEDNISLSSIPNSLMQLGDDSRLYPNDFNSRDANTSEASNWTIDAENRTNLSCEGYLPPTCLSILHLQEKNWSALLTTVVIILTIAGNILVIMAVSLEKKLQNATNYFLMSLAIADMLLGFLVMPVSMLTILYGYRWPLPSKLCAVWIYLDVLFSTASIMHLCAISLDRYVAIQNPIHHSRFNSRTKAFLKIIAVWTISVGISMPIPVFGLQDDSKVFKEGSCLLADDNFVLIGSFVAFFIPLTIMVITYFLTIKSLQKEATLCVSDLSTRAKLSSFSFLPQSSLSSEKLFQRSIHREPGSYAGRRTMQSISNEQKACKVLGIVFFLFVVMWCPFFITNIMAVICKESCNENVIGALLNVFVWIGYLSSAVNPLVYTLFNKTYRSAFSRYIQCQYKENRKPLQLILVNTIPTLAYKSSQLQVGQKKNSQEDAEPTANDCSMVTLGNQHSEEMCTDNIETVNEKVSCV
Description: Drug-induced Head Twitch Response (HTR). The format is in vivo. To be noted: 1 mg/kg i.p., 15-to-30-minute window post-drug, relative to vehicle.

Data set [2] can be described thus: Mouse pharmacokinetic (PK) study, parent compound and psilocin metabolite in plasma. The format is in vivo. The note with it: for bioavailability: male, C57Bl/6, mouse, plasma, po; for bioavailability / F(%): parent compound, AUC0-tlast used; for AUC0-inf/Dose / AUC0-tlast/Dose / Cmax/Dose: parent compound in plasma. The text has this: Briefly, the procedure was as follows. […] 19, 2022.

The mark [3] stands for this setting: 1 mg/kg i.v., each animal, 1 mg/kg.
Setting [4] is: 1 mg/kg p.o., each animal, 1 mg/kg.
Where [5] appears, read: 3 mg/kg p.o., each animal, 3 mg/kg.
The mark [6] stands for this setting: 10 mg/kg p.o., each animal, 10 mg/kg.

Turning to `N[C@@H](Cc1c[nH]c2ccccc12)C(=O)O` [tryptophan, reference compound], the “5-HT1A receptor modulation (reduction of forskolin-induced cAMP)” value at 5-HT1A receptor is recorded as “no reduction in cellular cAMP levels”. Also, the “Binding at 5-HT2A receptor in competition assay” value on 5-HT2A receptor is “no binding”.
For `CN(C)CCc1c[nH]c2cccc(O)c12` [psilocin, reference compound], in that order: “reduction in cAMP levels” and “binding”.
As for `CN(C)CCc1c[nH]c2cccc(OC(=O)c3ccc(Br)cc3)c12` [C(I)], the “5-HT1A receptor modulation (reduction of forskolin-induced cAMP)” value at 5-HT1A receptor is on record as “mild receptor modulation at higher ligand concentrations”. Also, the “Head Twitch Response (HTR) incidence” value in data set [1] was “Elevated incidences of HTR”. Also, the bioavailability in data set [2] (1 mg/kg, 1 mg/kg p.o., M37 (i.v. group) considered as an outlier, mean ± SD) worked out at 2.3 ± 1.76%; in data set [2] (3 mg/kg, 3 mg/kg p.o., M37 (i.v. group) considered as an outlier, mean ± SD), 3.18 ± 0.189%; in data set [2] (3 mg/kg, 3 mg/kg p.o., if M37 (i.v. group) is considered as an outlier, each animal), 3.02%; in data set [2] (10 mg/kg, 10 mg/kg p.o., M37 (i.v. group) considered as an outlier, mean ± SD), 3.22 ± 0.731%; in data set [2] (10 mg/kg, 10 mg/kg p.o., if M37 (i.v. group) is considered as an outlier, each animal), 2.71%. Also, the Plasma concentration result is “BLQ (2×) and No Peak” in data set [2] (parent C(I), 1 mg/kg i.v., 8 h, each animal, BLQ = below 0.5 ng/mL, 1 mg/kg); “BLQ” in data set [2] (parent C(I), 1 mg/kg p.o., 1 h, each animal, BLQ = below 0.5 ng/mL, 1 mg/kg); “BLQ” in data set [2] (parent C(I), 1 mg/kg p.o., 2 h, each animal, BLQ = below 0.5 ng/mL, 1 mg/kg); “BLQ” in data set [2] (parent C(I), 1 mg/kg p.o., 4 h, each animal, BLQ = below 0.5 ng/mL, 1 mg/kg); “BLQ” in data set [2] (parent C(I), 1 mg/kg p.o., 6 h, each animal, BLQ = below 0.5 ng/mL); “BLQ” in data set [2] (parent C(I), 1 mg/kg p.o., 8 h, each animal, BLQ = below 0.5 ng/mL). In addition, the Plasma concentration entry is “No Peak and No (2×)” in data set [2] (parent C(I), 1 mg/kg p.o., 24 h, each animal, BLQ = below 0.5 ng/mL, 1 mg/kg); 1.33 ng/mL in data set [2] (parent C(I), 3 mg/kg p.o., 1 h, each animal, BLQ = below 0.5 ng/mL, 3 mg/kg); 0.250 ng/mL in data set [2] (parent C(I), 3 mg/kg p.o., 6 h, each animal, BLQ = below 0.5 ng/mL, 3 mg/kg); “BLQ” in data set [2] (parent C(I), 3 mg/kg p.o., 8 h, each animal, BLQ = below 0.5 ng/mL); “No Peak” in data set [2] (parent C(I), 3 mg/kg p.o., 24 h, each animal, BLQ = below 0.5 ng/mL); 3.01 ng/mL in data set [2] (parent C(I), 10 mg/kg p.o., 4 h, each animal, BLQ = below 0.5 ng/mL, 10 mg/kg). Further, the Plasma concentration result is “No” in data set [2] (parent C(I), 10 mg/kg p.o., 24 h, each animal, BLQ = below 0.5 ng/mL); “BLQ” in data set [2] (psilocin, prodrug 1 mg/kg i.v., 6 h, each animal, BLQ = below 0.2 ng/mL); “BLQ” in data set [2] (psilocin, prodrug 1 mg/kg i.v., 8 h, each animal, BLQ = below 0.2 ng/mL); “BLQ” in data set [2] (psilocin, prodrug 1 mg/kg p.o., 8 h, each animal, BLQ = below 0.2 ng/mL); “No Peak (2×) and BLQ” in data set [2] (psilocin, prodrug 1 mg/kg p.o., 24 h, each animal, BLQ = below 0.2 ng/mL); “No Peak” in data set [2] (psilocin, prodrug 3 mg/kg p.o., 24 h, each animal, BLQ = below 0.2 ng/mL). Further, the Plasma concentration result in data set [2] (psilocin, prodrug 10 mg/kg p.o., 24 h, each animal, BLQ = below 0.2 ng/mL) is “BLQ”. Also, the AUC0-inf/Dose is 1014 kg·ng·h/mL/mg and 64.4 kg·ng·h/mL/mg and 51.9 kg·ng·h/mL/mg in data set [2] (setting [3]); 377 ± 552 kg·ng·h/mL/mg in data set [2] (1 mg/kg i.v., mean ± SD). For the same compound, the AUC0-tlast/Dose in data set [2] (setting [3]) was 1006 kg·ng·h/mL/mg and 63.7 kg·ng·h/mL/mg and 51.4 kg·ng·h/mL/mg; in data set [2] (1 mg/kg i.v., mean of n = 2 (without the possible outlier M37)), 57.6 (n = 2) h*kg*ng/mL/mg; in data set [2] (1 mg/kg i.v., mean ± SD), 374 ± 548 kg·ng·h/mL/mg; in data set [2] (setting [4]), 2.09 kg·ng·h/mL/mg and 0.169 kg·ng·h/mL/mg and 1.75 kg·ng·h/mL/mg; in data set [2] (1 mg/kg p.o., mean ± SD), 1.34 ± 1.02 kg·ng·h/mL/mg; in data set [2] (setting [5]), 1.75 kg·ng·h/mL/mg and 1.82 kg·ng·h/mL/mg and 1.97 kg·ng·h/mL/mg. The AUC0-tlast/Dose in data set [2] (3 mg/kg p.o., mean ± SD) was 1.85 ± 0.110 kg·ng·h/mL/mg; in data set [2] (setting [6]), 1.58 kg·ng·h/mL/mg and 1.68 kg·ng·h/mL/mg and 2.36 kg·ng·h/mL/mg; in data set [2] (10 mg/kg p.o., mean ± SD), 1.87 ± 0.425 kg·ng·h/mL/mg. Also, the Cmax/Dose was 0.816 kg·ng/mL/mg and 0.54 kg·ng/mL/mg and 1.28 kg·ng/mL/mg in data set [2] (setting [4]); 0.877 ± 0.376 kg·ng/mL/mg in data set [2] (1 mg/kg p.o., mean ± SD); 0.650 kg·ng/mL/mg and 0.720 kg·ng/mL/mg and 0.780 kg·ng/mL/mg in data set [2] (setting [5]); 0.717 ± 0.0651 kg·ng/mL/mg in data set [2] (3 mg/kg p.o., mean ± SD); 0.720 kg·ng/mL/mg and 0.710 kg·ng/mL/mg and 1.09 kg·ng/mL/mg in data set [2] (setting [6]); 0.840 ± 0.217 kg·ng/mL/mg in data set [2] (10 mg/kg p.o., mean ± SD). Also, the “F(%)” value was determined as 3.01% in data set [2] (1 mg/kg p.o., if M37 (i.v. group) is considered as an outlier, each animal, 1 mg/kg) and 2.90% in data set [2] (10 mg/kg p.o., if M37 (i.v. group) is considered as an outlier, each animal, 10 mg/kg).

By bioavailability is commonly meant dose-corrected exposure relative to a reference, in per cent.
